Experimental data published in patent US10383338B2, “Compositions and methods for making and using hydrolytic enzymes for degrading polysaccharides made by foodborne pathogenic bacteria” (University of Wyoming, priority 2014, dated 2019).
Like-named read-outs stand apart in the source and are kept apart here.

Key:
L. monocytogenes = type: cell-based; settings: 1600 ppm, 10 min, room temperature; for killing of wild-type strain EGD-e: HTM-grown culture
Description: Here, the role of L. monocytogenes EPS in providing tolerance to disinfection and desiccation was evaluated. […] To distinguish between the contribution of EPS versus EPS-independent c-di-GMP-responsive agents, included in the tests were the ΔpdeB/C/D ΔpssC mutant characterized by elevated intracellular c-di-GMP levels but defective in EPS production.
Cultures were grown in HTM with 3% glucose at 37° C. for 24 h, at which point small uniform clumps are formed by the ΔpdeB/C/D strain. Aliquots (250 μl; 10^8 cfu/ml) of these cultures were mixed with disinfectants at 1:1 vol ratios in small glass tubes that also contained 0.1 g of acid washed glass beads (Sigma Life Sciences). Following a 10-min exposure to disinfectants at room temperature, D/E neutralizing broth (500 μl; Difco) was added. Samples were vigorously vortexed (for 5 min) and clumps of the ΔpdeB/C/D strain were dispersed due to the action of the glass beads. Serial dilutions were plated on BHI agar and colonies were counted following a 48-h incubation at 37° C.

[1] = system: wild-type L. monocytogenes EGD-e; experiment: Disinfection tolerance, wild-type strain; type: cell-based, Listeria monocytogenes; settings: sodium hypochlorite 1600 ppm, 10 min, room temperature; HTM-grown cultures
Description: FIGS. 6A-6D: Role of the c-di-GMP-induced EPS in biofilm formation, cell aggregation, and tolerance of L. monocytogenes to disinfectants and desiccation. […] Cultures were grown for 6 days at 30° C. in LB (top panel) or LB supplemented with 3% glycerol (bottom panel). Shown are average results from two biological replicates, where each strain was grown in six wells in a replicate (i.e., six technical replicates). Black circle, wild type; red square, ΔpdeB/C/D; green triangle, ΔpdeB/C/D ΔpssC; blue cross, ΔpdeB/C/D ΔpssE. […] Overnight cultures grown in BHI were inoculated into HTM liquid medium at A600 of 0.01 and incubated at 30° C. with gentle shaking (rotary shaker, 125 rpm) for 48 h. 1, ΔpdeB/C/D; 2, wild type; 3, ΔpdeB/C/D ΔpssC; 4, ΔpdeB/C/D ΔpssE. […] Aliquots of the HTM-grown cultures were mixed with disinfectant solutions for 10 min at room temperature. […]
EPS is known to protect bacteria from environmental insults. Here, the role of L. monocytogenes EPS in providing tolerance to disinfection and desiccation was evaluated. […]
Solutions of sodium hypochlorite, hydrogen peroxide, and benzalkonium chloride (Sigma-Aldrich and Sigma Life Sciences) were prepared in sterile phosphate-buffered saline with disinfection concentrations of 1600 ppm, 200 mM, and 100 ppm, respectively. […] Serial dilutions were plated on BHI agar and colonies were counted following a 48-h incubation at 37° C.

OCl [sodium hypochlorite]
survival of EPS producing ΔpdeB/C/D mutant relative to wild type (L. monocytogenes): > 10^6 fold
killing of wild-type strain EGD-e (L. monocytogenes): highly effective in killing the wild-type strain
killing of wild-type strain EGD-e (L. monocytogenes; listed as SH): lack of survivors
killing / survivors after disinfectant treatment [1]: highly effective in killing
